Consider 10 molecules from ChEMBL document CHEMBL1148445, “Synthesis of 2',5'-dideoxy-2-fluoroadenosine and 2',5'-dideoxy-2,5'-difluoroadenosine: potent P-site inhibitors of adenylyl cyclase” (J Med Chem, 2004).

For the assay, the target named is Adenylate cyclase type 5 (Rattus norvegicus, UniProt Q04400). The assay can be described thus: Compound was evaluated for inhibition of adenylate cyclase from rat brain. The format is tissue-based.

pIC50: −log10 of the molar value.

Sequence of Adenylate cyclase type 5 (Q04400 whole entry): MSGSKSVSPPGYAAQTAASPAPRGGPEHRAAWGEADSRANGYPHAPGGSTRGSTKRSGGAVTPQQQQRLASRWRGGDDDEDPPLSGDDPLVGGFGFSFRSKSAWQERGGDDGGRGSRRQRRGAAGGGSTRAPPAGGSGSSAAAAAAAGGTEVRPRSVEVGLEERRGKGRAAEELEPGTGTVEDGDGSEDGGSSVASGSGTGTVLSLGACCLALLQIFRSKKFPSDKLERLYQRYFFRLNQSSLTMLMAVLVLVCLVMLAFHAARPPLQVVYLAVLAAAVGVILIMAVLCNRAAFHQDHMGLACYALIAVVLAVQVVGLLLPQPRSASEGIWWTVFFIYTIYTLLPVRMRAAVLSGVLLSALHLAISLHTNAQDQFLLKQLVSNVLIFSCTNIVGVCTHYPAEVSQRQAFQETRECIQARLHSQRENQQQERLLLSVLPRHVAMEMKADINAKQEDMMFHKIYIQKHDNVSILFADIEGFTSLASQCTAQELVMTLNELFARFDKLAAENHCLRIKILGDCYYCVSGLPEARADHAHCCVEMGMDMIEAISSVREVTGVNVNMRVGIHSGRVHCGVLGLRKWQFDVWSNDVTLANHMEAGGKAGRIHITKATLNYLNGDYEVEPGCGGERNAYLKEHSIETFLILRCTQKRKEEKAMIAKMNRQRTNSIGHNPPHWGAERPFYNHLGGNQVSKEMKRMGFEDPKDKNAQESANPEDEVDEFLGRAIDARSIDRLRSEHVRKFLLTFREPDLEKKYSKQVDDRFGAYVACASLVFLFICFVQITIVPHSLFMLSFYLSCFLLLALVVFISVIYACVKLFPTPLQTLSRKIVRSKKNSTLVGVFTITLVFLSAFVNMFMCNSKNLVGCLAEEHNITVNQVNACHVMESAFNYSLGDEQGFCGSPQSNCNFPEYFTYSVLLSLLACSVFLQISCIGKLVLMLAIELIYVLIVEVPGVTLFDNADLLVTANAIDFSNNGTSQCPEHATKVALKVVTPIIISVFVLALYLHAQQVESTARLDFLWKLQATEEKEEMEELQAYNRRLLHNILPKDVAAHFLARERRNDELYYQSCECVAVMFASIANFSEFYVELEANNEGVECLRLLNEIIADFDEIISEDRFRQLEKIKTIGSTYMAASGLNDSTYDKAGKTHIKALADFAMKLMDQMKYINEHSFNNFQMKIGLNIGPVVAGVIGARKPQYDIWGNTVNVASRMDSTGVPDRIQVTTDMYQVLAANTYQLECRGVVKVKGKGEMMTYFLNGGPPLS

Regarding `C[C@@H]1O[C@H](n2cnc3c(N)ncnc32)C[C@H]1O`, the pIC50 is 5.55.

Regarding `Nc1nc(F)nc2c1ncn2[C@H]1C[C@H](O)[C@@H](CO)O1` (stereo in doubt; form 1), the pIC50 is 5.34. Turning to `C[C@H]1O[C@@H](n2cnc3c(N)nc(F)nc32)C[C@@H]1O` (stereo in doubt; form 1), the negative-log IC50 (pIC50) is below 4.00.

`Nc1nc(F)nc2c1ncn2[C@H]1C[C@H](O)[C@@H](CF)O1` (stereo in doubt; form 1) gave a pIC50 of 4.54.

In turn, `Nc1nc(F)nc2c1ncn2[C@H]1C[C@H](O)[C@@H](CO)O1` (stereo in doubt; form 2) gave a pIC50 below 4.00.

Consider `C[C@H]1O[C@@H](n2cnc3c(N)nc(F)nc32)C[C@@H]1O` (stereo in doubt; form 2), for which the pIC50 was 6.05.

Consider `Nc1nc(F)nc2c1ncn2[C@H]1C[C@H](O)[C@@H](CF)O1` (stereo in doubt; form 2), for which the pIC50 is 6.01. In the case of `Nc1ncnc2c1ncn2[C@@H]1O[C@H](CO)[C@@H](O)[C@H]1O` [ADENOSINE] it was below 3.52; in that of `Nc1ncnc2c1ncn2[C@H]1C[C@H](O)[C@@H](CO)O1` [DEOXYADENOSINE], 4.82. On to `Nc1ncnc2c1ncn2[C@@H]1O[C@H](CO)[C@@H](O)[C@@H]1O` [VIDARABINE], for which the pIC50 was 4.09.
